Experimental data: US20100261723A1, “TRISUBSTITUTED PYRIMIDINE DERIVATIVES FOR THE TREATMENT OF PROLIFERATIVE DISEASES” (ASTRAZENECA AB, priority 2007, published 2010)

Biological target: T1, mTOR kinase (Homo sapiens, UniProt P42345)
T1 construct: FLAG; made in house
Experiment: In vitro mTOR kinase assay, Test (a)(i) (AlphaScreen)
Format: biochemical
Conditions: recombinant FLAG-tagged mTOR (1362-2549), ATP 20 μM; read-out: Test (a)(i) IC50
Protocol: (a)(i) In Vitro mTOR Kinase Assay
A C-terminal truncation of mTOR encompassing amino acid residues 1362 to 2549 of mTOR (EMBL Accession No. L34075) was stably expressed as a FLAG-tagged fusion in HEK293 cells as described by Vilella-Bach et al., […], 1999, 274, 4266-4272. The HEK293 FLAG-tagged mTOR (1362-2549) stable cell line was routinely maintained at 37° C. with 5% CO2 up to a confluency of 70-90% in Dulbecco's modified Eagle's growth medium (DMEM; Invitrogen Limited, Paisley, UK Catalogue No. 41966-029) containing 10% heat-inactivated foetal calf serum (FCS; Sigma, Poole, Dorset, UK, Catalogue No. F0392), 1% L-glutamine (Gibco, Catalogue No. 25030-024) and 2 mg/ml Geneticin (G418 sulfate; Invitrogen Limited, UK Catalogue No. 10131-027). Following expression in the mammalian HEK293 cell line, expressed protein was purified using the FLAG epitope tag using standard purification techniques.
A 30 μl mixture of recombinant purified mTOR enzyme, 1 μM biotinylated peptide substrate (Biotin-Ahx-[…]NH2; Bachem UK Ltd), ATP (20 μM) and a buffer solution [comprising Tris-HCl pH7.4 buffer (50 mM), EGTA (0.1 mM), bovine serum albumin (0.5 mg/mL), DTT (1.25 mM) and manganese chloride (10 mM)] was agitated at room temperature for 90 minutes.
These assay solutions were incubated for 2 hours at room temperature.
Phosphorylated biotinylated peptide is formed in situ as a result of mTOR mediated phosphorylation. The phosphorylated biotinylated peptide that is associated with AlphaScreen Streptavidin donor beads forms a complex with the p70 S6 Kinase (T389) 1A5 Monoclonal Antibody that is associated with Alphascreen Protein A acceptor beads. […] Accordingly, the presence of mTOR kinase activity results in an assay signal. In the presence of an mTOR kinase inhibitor, signal strength is reduced.

T1 sequence (P42345 1362-2549): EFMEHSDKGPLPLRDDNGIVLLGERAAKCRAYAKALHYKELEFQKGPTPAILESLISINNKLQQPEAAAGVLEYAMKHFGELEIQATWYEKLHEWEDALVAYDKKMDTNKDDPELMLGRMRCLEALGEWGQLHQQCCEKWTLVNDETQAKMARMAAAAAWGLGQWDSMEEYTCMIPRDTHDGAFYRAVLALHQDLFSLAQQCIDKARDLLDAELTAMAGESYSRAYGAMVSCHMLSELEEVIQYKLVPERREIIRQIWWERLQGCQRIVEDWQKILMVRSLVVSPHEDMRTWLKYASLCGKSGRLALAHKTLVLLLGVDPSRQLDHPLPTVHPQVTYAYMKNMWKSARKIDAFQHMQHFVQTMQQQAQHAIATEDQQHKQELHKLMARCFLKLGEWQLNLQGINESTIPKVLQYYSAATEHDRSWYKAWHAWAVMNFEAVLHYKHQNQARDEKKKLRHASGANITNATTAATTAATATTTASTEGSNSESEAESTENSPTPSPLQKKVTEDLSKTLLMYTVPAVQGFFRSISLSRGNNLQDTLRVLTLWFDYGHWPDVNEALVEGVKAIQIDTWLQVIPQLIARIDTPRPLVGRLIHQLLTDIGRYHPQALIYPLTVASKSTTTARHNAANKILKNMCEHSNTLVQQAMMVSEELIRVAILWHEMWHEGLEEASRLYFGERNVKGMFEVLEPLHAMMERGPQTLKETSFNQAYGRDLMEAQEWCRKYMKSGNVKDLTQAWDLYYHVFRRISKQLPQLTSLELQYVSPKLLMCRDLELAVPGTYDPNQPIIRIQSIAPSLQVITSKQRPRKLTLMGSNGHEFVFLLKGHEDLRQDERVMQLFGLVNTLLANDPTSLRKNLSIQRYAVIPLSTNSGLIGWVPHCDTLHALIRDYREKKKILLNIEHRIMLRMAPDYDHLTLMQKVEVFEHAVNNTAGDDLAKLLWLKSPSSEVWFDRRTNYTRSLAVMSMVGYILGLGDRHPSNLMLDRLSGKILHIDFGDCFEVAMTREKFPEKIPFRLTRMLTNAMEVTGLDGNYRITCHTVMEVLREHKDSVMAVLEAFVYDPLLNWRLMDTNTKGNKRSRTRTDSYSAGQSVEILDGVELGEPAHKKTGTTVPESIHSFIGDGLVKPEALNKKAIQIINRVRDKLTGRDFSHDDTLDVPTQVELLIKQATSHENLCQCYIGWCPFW

SMILES	IC50
CC(=O)Nc1ccc(-c2nc(CS(C)(=O)=O)cc(N3CCOCC3)n2)cc1CO [Example 1, N-[2-(Hydroxymethyl)-4-[4-(methylsulfonylmethyl)-6-morpholin-4-yl-pyrimidin-2-yl]phenyl]acetamide]	0.164 µM
C[C@H]1COCCN1c1cc(CS(C)(=O)=O)nc(-c2ccc(NC(=O)c3ccno3)cc2)n1 [Example 2, N-[4-[4-[(3S)-3-Methylmorpholin-4-yl]-6-(methylsulfonylmethyl)pyrimidin-2-yl]phenyl]-1,2-oxazole-5-carboxamide]	0.0909 µM
C[C@H]1COCCN1c1cc(CS(C)(=O)=O)nc(-c2ccc(NC(=O)CO)cc2)n1 [Example 3, 2-Hydroxy-N-[4-[4-[(3S)-3-methylmorpholin-4-yl]-6-(methylsulfonylmethyl)pyrimidin-2-yl]phenyl]acetamide]	0.238 µM
CC(=O)Nc1ccc(-c2nc(CS(C)(=O)=O)cc(N3CCOCC3)n2)cc1 [Example 4, N-[4-[4-(Methylsulfonylmethyl)-6-morpholin-4-yl-pyrimidin-2-yl]phenyl]acetamide]	0.93 µM
CS(=O)(=O)Cc1cc(N2CCOCC2)nc(-c2ccc(NC(=O)c3ccccc3)cc2)n1 [Example 4a, N-[4-[4-(methylsulfonylmethyl)-6-morpholin-4-yl-pyrimidin-2-yl]phenyl]benzamide]	15.3 µM
CS(=O)(=O)Cc1cc(N2CCOCC2)nc(-c2ccc(NC(=O)C3CCC3)cc2)n1 [Example 5, N-[4-[4-(Methylsulfonylmethyl)-6-morpholin-4-yl-pyrimidin-2-yl]phenyl]cyclobutanecarboxamide]	1.17 µM
CCC(=O)Nc1ccc(-c2nc(CS(C)(=O)=O)cc(N3CCOCC3)n2)cc1 [Example 5a, N-[4-[4-(methylsulfonylmethyl)-6-morpholin-4-yl-pyrimidin-2-yl]phenyl]propanamide]	0.648 µM
CS(=O)(=O)Cc1cc(N2CCOCC2)nc(-c2ccc(NC(=O)CCC3CC3)cc2)n1 [Example 5aa, 3-cyclopropyl-N-[4-[4-(methylsulfonylmethyl)-6-morpholin-4-yl-pyrimidin-2-yl]phenyl]propanamide]	4.99 µM
CS(=O)(=O)Cc1cc(N2CCOCC2)nc(-c2ccc(NC(=O)C3(C(N)=O)CC3)cc2)n1 [Example 5ab, N′-[4-[4-(methylsulfonylmethyl)-6-morpholin-4-yl-pyrimidin-2-yl]phenyl]cyclopropane-1,1-dicarboxamide]	6.59 µM
CS(=O)(=O)Cc1cc(N2CCOCC2)nc(-c2ccc(NC(=O)C3CCOCC3)cc2)n1 [Example 5ac, N-[4-[4-(methylsulfonylmethyl)-6-morpholin-4-yl-pyrimidin-2-yl]phenyl]oxane-4-carboxamide]	5.38 µM
CC(=O)NCCC(=O)Nc1ccc(-c2nc(CS(C)(=O)=O)cc(N3CCOCC3)n2)cc1 [Example 5ad, 3-acetamido-N-[4-[4-(methylsulfonylmethyl)-6-morpholin-4-yl-pyrimidin-2-yl]phenyl]propanamide]	3.99 µM
CS(=O)(=O)Cc1cc(N2CCOCC2)nc(-c2ccc(NC(=O)c3cc[nH]n3)cc2)n1 [Example 5ae, N-[4-[4-(methylsulfonylmethyl)-6-morpholin-4-yl-pyrimidin-2-yl]phenyl]-1H-pyrazole-3-carboxamide]	1.81 µM
Cc1cc(C(=O)Nc2ccc(-c3nc(CS(C)(=O)=O)cc(N4CCOCC4)n3)cc2)n(C)n1 [Example 5af, 2,5-dimethyl-N-[4-[4-(methylsulfonylmethyl)-6-morpholin-4-yl-pyrimidin-2-yl]phenyl]pyrazole-3-carboxamide]	10 µM
CS(=O)(=O)Cc1cc(N2CCOCC2)nc(-c2ccc(NC(=O)C3=COCCC3)cc2)n1 [Example 5ag, N-[4-[4-(methylsulfonylmethyl)-6-morpholin-4-yl-pyrimidin-2-yl]phenyl]-5,6-dihydro-4H-pyran-3-carboxamide]	2.76 µM
CS(=O)(=O)Cc1cc(N2CCOCC2)nc(-c2ccc(NC(=O)CCc3c[nH]cn3)cc2)n1 [Example 5ah, 3-(1H-imidazol-4-yl)-N-[4[4-(methylsulfonylmethyl)-6-morpholin-4-yl-pyrimidin-2-yl]phenyl]propanamide]	2.75 µM
CS(=O)(=O)Cc1cc(N2CCOCC2)nc(-c2ccc(NC(=O)Cc3ccco3)cc2)n1 [Example 5ai, 2-(2-furyl)-N-[4-[4-(methylsulfonylmethyl)-6-morpholin-4-yl-pyrimidin-2-yl]phenyl]acetamide]	1.64 µM

SMILES	IC50
CS(=O)(=O)Cc1cc(N2CCOCC2)nc(-c2ccc(NC(=O)CN3CCCC3=O)cc2)n1 [Example 5aj, N-[4-[4-(methylsulfonylmethyl)-6-morpholin-4-yl-pyrimidin-2-yl]phenyl]-2-(2-oxopyrrolidin-1-yl)acetamide]	9.7 µM
CS(=O)(=O)Cc1cc(N2CCOCC2)nc(-c2ccc(NC(=O)Cc3ncccn3)cc2)n1 [Example 5ak, N-[4-[4-(methylsulfonylmethyl)-6-morpholin-4-yl-pyrimidin-2-yl]phenyl]-2-pyrimidin-2-yl-acetamide]	7.79 µM
CC(C)(C(N)=O)C(=O)Nc1ccc(-c2nc(CS(C)(=O)=O)cc(N3CCOCC3)n2)cc1 [Example 5al, 2,2-dimethyl-N′-[4-[4-(methylsulfonylmethyl)-6-morpholin-4-yl-pyrimidin-2-yl]phenyl]propanediamide]	3.96 µM
CS(=O)(=O)Cc1cc(N2CCOCC2)nc(-c2ccc(NC(=O)CN3CCOCC3)cc2)n1 [Example 5am, N-[4-[4-(methylsulfonylmethyl)-6-morpholin-4-yl-pyrimidin-2-yl]phenyl]-2-morpholin-4-yl-acetamide]	9.1 µM
Cc1ccn(CC(=O)Nc2ccc(-c3nc(CS(C)(=O)=O)cc(N4CCOCC4)n3)cc2)n1 [Example 5an, 2-(3-methylpyrazol-1-yl)-N-[4-[4-(methylsulfonylmethyl)-6-morpholin-4-yl-pyrimidin-2-yl]phenyl]acetamide]	29.7 µM
CS(=O)(=O)Cc1cc(N2CCOCC2)nc(-c2ccc(NC(=O)c3cncs3)cc2)n1 [Example 5ao, N-[4-[4-(methylsulfonylmethyl)-6-morpholin-4-yl-pyrimidin-2-yl]phenyl]-1,3-thiazole-5-carboxamide]	0.552 µM
CO[C@H](C)C(=O)Nc1ccc(-c2nc(CS(C)(=O)=O)cc(N3CCOCC3)n2)cc1 [Example 5ap, (2R)-2-methoxy-N-[4-[4-(methylsulfonylmethyl)-6-morpholin-4-yl-pyrimidin-2-yl]phenyl]propanamide]	32.6 µM
CS(=O)(=O)Cc1cc(N2CCOCC2)nc(-c2ccc(NC(=O)CC(F)(F)F)cc2)n1 [Example 5aq, 3,3,3-trifluoro-N-[4-[4-(methylsulfonylmethyl)-6-morpholin-4-yl-pyrimidin-2-yl]phenyl]propanamide]	0.609 µM
CS(=O)(=O)Cc1cc(N2CCOCC2)nc(-c2ccc(NC(=O)C(F)F)cc2)n1 [Example 5ar, 2,2-difluoro-N-[4-[4-(methylsulfonylmethyl)-6-morpholin-4-yl-pyrimidin-2-yl]phenyl]acetamide]	1.07 µM
CS(=O)(=O)Cc1cc(N2CCOCC2)nc(-c2ccc(NC(=O)c3csnn3)cc2)n1 [Example 5as, N-[4-[4-(methylsulfonylmethyl)-6-morpholin-4-yl-pyrimidin-2-yl]phenyl]thiadiazole-4-carboxamide]	0.36 µM
CS(=O)(=O)Cc1cc(N2CCOCC2)nc(-c2ccc(NC(=O)C3(C#N)CC3)cc2)n1 [Example 5at, 1-cyano-N-[4-[4-(methylsulfonylmethyl)-6-morpholin-4-yl-pyrimidin-2-yl]phenyl]cyclopropane-1-carboxamide]	1.01 µM
CS(=O)(=O)Cc1cc(N2CCOCC2)nc(-c2ccc(NC(=O)CCC#N)cc2)n1 [Example 5au, 3-cyano-N-[4-[4-(methylsulfonylmethyl)-6-morpholin-4-yl-pyrimidin-2-yl]phenyl]propanamide]	0.165 µM
CCCC(=O)Nc1ccc(-c2nc(CS(C)(=O)=O)cc(N3CCOCC3)n2)cc1 [Example 5b, N-[4-[4-(methylsulfonylmethyl)-6-morpholin-4-yl-pyrimidin-2-yl]phenyl]butanamide]	0.669 µM
CC(=O)NCC(=O)Nc1ccc(-c2nc(CS(C)(=O)=O)cc(N3CCOCC3)n2)cc1 [Example 5c, N-[[4-[4-(methylsulfonylmethyl)-6-morpholin-4-yl-pyrimidin-2-yl]phenyl]carbamoylmethyl] acetamide]	1.37 µM
CC(=O)NC(C)C(=O)Nc1ccc(-c2nc(CS(C)(=O)=O)cc(N3CCOCC3)n2)cc1 (centres unmarked) [Example 5d, 2-acetamido-N-[4-[4-(methylsulfonylmethyl)-6-morpholin-4-yl-pyrimidin-2-yl]phenyl]propanamide]	7.17 µM
CS(=O)(=O)CC(=O)Nc1ccc(-c2nc(CS(C)(=O)=O)cc(N3CCOCC3)n2)cc1 [Example 5e, 2-methylsulfonyl-N-[4-[4-(methylsulfonylmethyl)-6-morpholin-4-yl-pyrimidin-2-yl]phenyl]acetamide]	1.77 µM
